Key:
class I PI3K = experiment: PI3K HTRF assay (Reaction Biology), class I PI3K; format: biochemical, human; conditions: Yes = inhibition
Human PI3Kδ (p110δ/p85α) = target: T1, Human PI3Kδ (p110δ/p85α) (Homo sapiens, UniProt O00329); experiment: PI3K HTRF assay, PI3Kδ; format: biochemical
T1 construct: N-terminal GST tagged recombinant full-length human p110δ; GST (N); purchased Reaction Biology Corporation (RBC), Malvern, Pa; host or cells: Baculovirus infected Sf9 cells

Human PI3Kβ (p110β/p85α) = target: T2, Human PI3Kβ (p110β/p85α) (Homo sapiens, UniProt P42338); experiment: PI3K HTRF assay, PI3Kβ; format: biochemical
T2 construct: N-terminal 6His-tagged recombinant full-length human p110β; 6His (N); purchased Reaction Biology Corporation (RBC), Malvern, Pa; host or cells: Baculovirus infected Sf21 cells

hemoglobin = hemoglobin (Homo sapiens, UniProt P68871+P69905); conditions: background statement; can displace Hb-bound BPG; cited from earlier work
free hemoglobin (Hb) = target: T3, free hemoglobin (Hb) (Homo sapiens, UniProt P68871+P69905); experiment: Oxygen equilibrium curve (Hemox Analyzer), P50 on free hemoglobin; format: biochemical; conditions: blood matrix Hb, 100 mM compound; for P50 (Torr): effector/Hb ratio 20, pH 7.4, 37° C., n=3; for P50 increase (%): versus P50 control
T3 construct: the cells were hemolysed by addition of 2 volumes of cold distilled water; tissue EFS-Alsace; host or cells: red blood cell concentrate
Method: (§1) Some of the compounds described herein were tested for P50, the partial pressure of oxygen for half-saturation, on free hemoglobin (Hb) as well as human whole blood (WB) in different concentrations.
The hemoglobin solution was prepared from red blood cells concentrate (EFS-Alsace) by washing three times with 1 volume of saline (1500×g, 10 min), the cells were hemolysed by addition of 2 volumes of cold distilled water. After centrifugation (7000×g, 30 min) for stroma removal, 5 ml of the clear hemoglobin solution were placed on a 2.5 cm×30 cm column of Sephadex G-25 equilibrated with 0.1 M sodium chloride+10^−5 M EDTA. The protein was eluted with the same solution at a rate of about 20 ml/h [Benesch, R.; Benesch, R. E. and Yu, C. I. Reciprocal binding of oxygen and diphosphoglycerate by human hemoglobin. Proc. Natl. Acad. Sci. USA (1968) 59, 526-532].
The allosteric modulation of the effectors was measured by the change in p50, the partial pressure of oxygen for half-saturation. The pH of the compound solutions was adjusted to approximately 7.0. Oxygen equilibrium curves (OEC) were carried out with the Hemox Analyzer (TCS Scientific Co.) under the following conditions: pH 7.4, 135 mM NaCl, 5 mM KCl and 30 mM TES (N—[tris(hydroxymethyl)methyl]-2-aminoethanesulfonic acid) buffer at 37° C. The concentration of free hemoglobin was 5·10^−3 M (577 nm, ε=58.4 mM^−1 cm^−1 per tetramer) and the final concentrations of the allosteric effectors were of 1.0·10^−1 M, resulting in an effector/Hb ratio of 20.

[1] = target: T4, hemoglobin in human whole blood (WB) (Homo sapiens, UniProt P68871+P69905); experiment: Oxygen equilibrium curve (Hemox Analyzer), P50 in human whole blood; format: cell-based; conditions: blood matrix WB; for P50 (Torr): incubated 1-2 h at 37° C., n=3; for P50 increase (%): versus P50 control
T4 construct: Human whole blood was freshly withdrawn from healthy donors in heparinized microtubes; from tissue; host or cells: fresh human whole blood from healthy donors
Method: as §1
Human whole blood was freshly withdrawn from healthy donors in heparinized microtubes. The pH of the compound solutions was adjusted to approximately 7.0 and whole blood volumes at 1:1 ratios were incubated individually for 1-2 h at 37° C. with the above compounds. The measurement of the OEC was carried out with the Hemox Analyzer (TCS Scientific Co.) under the following conditions: pH 7.4, 135 mM NaCl, 5 mM KCl and 30 mM TES (N-[tris(hydroxymethyl)methyl]-2-aminoethanesulfonic acid) buffer at 37° C.

T4 sequence (P69905 2-142 limits assumed): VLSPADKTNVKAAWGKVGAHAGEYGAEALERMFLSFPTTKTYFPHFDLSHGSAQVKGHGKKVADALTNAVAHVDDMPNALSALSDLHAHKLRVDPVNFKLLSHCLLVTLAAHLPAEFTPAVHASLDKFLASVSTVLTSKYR
T4 sequence (P68871 2-147 limits assumed): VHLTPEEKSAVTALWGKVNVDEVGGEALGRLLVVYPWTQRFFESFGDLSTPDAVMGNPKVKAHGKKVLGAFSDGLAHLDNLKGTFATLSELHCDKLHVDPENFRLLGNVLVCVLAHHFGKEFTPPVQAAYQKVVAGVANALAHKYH
T3 sequence (P69905 2-142 limits assumed): as the sequence (P69905 2-142 limits assumed) above
T3 sequence (P68871 2-147 limits assumed): as the sequence (P68871 2-147 limits assumed) above
Sequence of hemoglobin (P69905 2-142 limits assumed): as the sequence (P69905 2-142 limits assumed) above
Sequence of hemoglobin (P68871 2-147 limits assumed): as the sequence (P68871 2-147 limits assumed) above
T2 sequence (P42338 whole entry): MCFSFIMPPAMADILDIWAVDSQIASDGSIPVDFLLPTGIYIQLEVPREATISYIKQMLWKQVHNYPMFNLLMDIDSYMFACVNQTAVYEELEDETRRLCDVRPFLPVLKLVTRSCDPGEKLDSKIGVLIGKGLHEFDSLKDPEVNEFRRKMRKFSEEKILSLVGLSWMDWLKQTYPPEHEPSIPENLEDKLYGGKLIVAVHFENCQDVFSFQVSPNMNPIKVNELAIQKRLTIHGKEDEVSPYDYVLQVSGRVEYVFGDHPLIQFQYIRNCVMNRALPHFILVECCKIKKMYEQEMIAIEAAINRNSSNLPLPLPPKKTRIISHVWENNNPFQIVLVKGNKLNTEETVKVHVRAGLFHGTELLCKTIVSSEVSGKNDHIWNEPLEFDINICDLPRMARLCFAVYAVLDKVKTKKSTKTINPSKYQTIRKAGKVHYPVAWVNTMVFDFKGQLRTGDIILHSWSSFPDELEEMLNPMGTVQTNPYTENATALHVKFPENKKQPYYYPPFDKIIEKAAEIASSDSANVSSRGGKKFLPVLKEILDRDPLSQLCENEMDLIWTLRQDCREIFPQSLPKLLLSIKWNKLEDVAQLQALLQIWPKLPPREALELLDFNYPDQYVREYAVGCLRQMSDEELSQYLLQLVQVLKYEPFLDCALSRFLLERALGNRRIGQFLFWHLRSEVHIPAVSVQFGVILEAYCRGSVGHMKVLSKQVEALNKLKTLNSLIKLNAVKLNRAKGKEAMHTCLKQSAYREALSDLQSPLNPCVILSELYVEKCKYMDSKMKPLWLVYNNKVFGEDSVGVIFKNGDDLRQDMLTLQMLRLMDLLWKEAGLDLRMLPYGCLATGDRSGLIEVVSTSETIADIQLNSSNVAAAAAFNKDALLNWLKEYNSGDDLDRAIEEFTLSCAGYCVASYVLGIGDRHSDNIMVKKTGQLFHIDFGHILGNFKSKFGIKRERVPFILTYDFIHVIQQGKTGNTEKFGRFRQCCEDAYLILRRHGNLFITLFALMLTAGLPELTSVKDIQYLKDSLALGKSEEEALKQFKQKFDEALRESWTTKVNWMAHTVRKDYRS
T2 sequence (P27986 whole entry partner): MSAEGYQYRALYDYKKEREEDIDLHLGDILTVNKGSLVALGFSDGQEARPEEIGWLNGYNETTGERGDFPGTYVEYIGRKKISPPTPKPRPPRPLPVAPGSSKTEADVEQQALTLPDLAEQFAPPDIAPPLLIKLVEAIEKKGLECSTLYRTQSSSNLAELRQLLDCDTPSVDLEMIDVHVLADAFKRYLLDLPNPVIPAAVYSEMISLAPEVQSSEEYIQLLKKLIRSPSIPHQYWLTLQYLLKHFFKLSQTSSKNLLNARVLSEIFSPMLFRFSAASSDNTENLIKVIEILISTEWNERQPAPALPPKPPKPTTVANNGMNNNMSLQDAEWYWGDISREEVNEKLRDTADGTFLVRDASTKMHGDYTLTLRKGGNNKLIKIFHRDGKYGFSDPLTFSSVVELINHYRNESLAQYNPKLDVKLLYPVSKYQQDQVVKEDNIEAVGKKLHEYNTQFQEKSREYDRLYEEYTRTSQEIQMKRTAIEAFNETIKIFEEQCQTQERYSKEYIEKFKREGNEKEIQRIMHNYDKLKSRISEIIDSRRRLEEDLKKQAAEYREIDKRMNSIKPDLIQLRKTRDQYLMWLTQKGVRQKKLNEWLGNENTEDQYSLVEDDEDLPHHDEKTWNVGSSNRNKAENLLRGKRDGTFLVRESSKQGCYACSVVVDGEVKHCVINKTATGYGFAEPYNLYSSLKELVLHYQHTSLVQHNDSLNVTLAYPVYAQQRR
T1 sequence (O00329 whole entry): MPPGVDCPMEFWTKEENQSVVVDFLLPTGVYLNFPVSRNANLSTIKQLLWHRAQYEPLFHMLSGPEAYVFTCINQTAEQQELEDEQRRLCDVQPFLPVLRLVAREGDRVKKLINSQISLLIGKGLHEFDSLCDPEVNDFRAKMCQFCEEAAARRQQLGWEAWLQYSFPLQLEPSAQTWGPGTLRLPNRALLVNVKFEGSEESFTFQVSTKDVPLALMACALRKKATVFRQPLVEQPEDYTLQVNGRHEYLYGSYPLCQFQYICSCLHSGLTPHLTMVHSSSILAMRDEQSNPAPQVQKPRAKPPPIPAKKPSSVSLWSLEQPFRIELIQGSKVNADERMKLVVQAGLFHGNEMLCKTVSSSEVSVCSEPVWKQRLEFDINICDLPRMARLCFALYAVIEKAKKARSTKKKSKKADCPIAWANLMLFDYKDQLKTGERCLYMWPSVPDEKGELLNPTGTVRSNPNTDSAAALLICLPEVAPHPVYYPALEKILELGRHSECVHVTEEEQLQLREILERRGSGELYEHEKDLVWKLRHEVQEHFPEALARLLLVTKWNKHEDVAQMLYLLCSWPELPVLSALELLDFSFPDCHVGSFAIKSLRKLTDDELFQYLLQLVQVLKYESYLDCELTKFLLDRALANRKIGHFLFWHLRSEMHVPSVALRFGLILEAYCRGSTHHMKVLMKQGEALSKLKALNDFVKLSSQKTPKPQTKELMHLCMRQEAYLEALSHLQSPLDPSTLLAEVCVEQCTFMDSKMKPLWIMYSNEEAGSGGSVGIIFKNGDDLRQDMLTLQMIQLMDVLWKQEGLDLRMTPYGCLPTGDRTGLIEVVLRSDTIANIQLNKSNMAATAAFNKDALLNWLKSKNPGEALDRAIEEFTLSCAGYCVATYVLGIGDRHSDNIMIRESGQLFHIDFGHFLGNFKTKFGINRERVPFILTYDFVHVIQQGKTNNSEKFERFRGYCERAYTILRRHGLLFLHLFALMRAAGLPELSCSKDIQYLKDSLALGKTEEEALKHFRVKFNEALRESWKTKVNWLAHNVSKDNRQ
T1 sequence (P27986 whole entry partner): as the sequence (P27986 whole entry partner) above

O=P1(O)OC2C3OP(=O)(O)OP(=O)(O)OC3C3OP(=O)(O)OP(=O)(O)OC3C2OP(=O)(O)O1 (stereo not shown) [OXY111A, Myo-ITPP]
PI3 Kinase Inhibition (class I PI3K): Yes
activity against PI3Kδ (Human PI3Kδ (p110δ/p85α)): showed activity
activity against PI3Kβ (Human PI3Kβ (p110β/p85α)): showed activity

CCOC(=O)[C@@H]1OP(=O)([O-])OP(=O)([O-])O[C@H]1C(=O)OCC.[Na+].[Na+] [OXY3012, L-DET]
PI3 Kinase Inhibition (class I PI3K): Yes

O=P(O)(O)O[C@H]1[C@H](OP(=O)(O)O)[C@@H](OP(=O)(O)O)[C@H](OP(=O)(O)O)[C@@H](OP(=O)(O)O)[C@H]1OP(=O)(O)O [Phytic acid, myo-inositol hexakisphosphate]
potency relative to BPG (fold) (hemoglobin): 1000 fold

O=P(O)(O)OCC(OP(=O)(O)O)C(COP(=O)(O)O)OP(=O)(O)O (stereo not drawn) [SP1-134, meso-erythritol tetraphosphate]
P50 (Torr) (free hemoglobin (Hb)): 29.40 ± 1.20 Torr
P50 increase (%) (free hemoglobin (Hb)): 151%
P50 (Torr) ([1]; 120 mM compound): 30.17 ± 0.94 Torr
P50 increase (%) ([1]; 120 mM compound): 17%

Dibutyl-L-tartrate bisphosphate [SP1-219]
P50 (Torr) ([1]; 60 mM compound): 30.91 ± 1.76 Torr
P50 increase (%) ([1]; 60 mM compound): 11%
P50 (Torr) ([1]; 120 mM compound): 30.77 ± 1.44 Torr
P50 increase (%) ([1]; 120 mM compound): 11%

L-tartrate bisphosphate [SP1-90]
P50 (Torr) (free hemoglobin (Hb)): 24.76 ± 1.31 Torr
P50 increase (%) (free hemoglobin (Hb)): 127%

meso-Me Galactarate [OXY3006]
PI3 Kinase Inhibition (class I PI3K): Yes

From patent US20140142052A1, “PHOSPHORYLATED POLYOLS, PYROPHOSPHATES, AND DERIVATIVES THEREOF HAVING BIOLOGICAL ACTIVITY” (NormOxys, Inc., priority 2012, published 2014)
